pEC50: −log10 of the molar value. Where only a bound is given, the exact number is not on record here.

Sequence of hGPR88 receptor (Q9GZN0 whole entry): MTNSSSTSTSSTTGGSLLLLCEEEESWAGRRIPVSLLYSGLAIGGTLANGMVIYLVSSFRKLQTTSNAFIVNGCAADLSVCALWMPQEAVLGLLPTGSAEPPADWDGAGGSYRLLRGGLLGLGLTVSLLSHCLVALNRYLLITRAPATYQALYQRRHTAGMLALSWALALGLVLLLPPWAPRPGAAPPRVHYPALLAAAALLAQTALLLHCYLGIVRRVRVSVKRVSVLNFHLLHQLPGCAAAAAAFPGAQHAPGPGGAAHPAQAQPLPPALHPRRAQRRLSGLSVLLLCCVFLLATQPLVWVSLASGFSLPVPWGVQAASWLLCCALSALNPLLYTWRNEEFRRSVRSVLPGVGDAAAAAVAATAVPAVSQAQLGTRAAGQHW

One assay addresses hGPR88 receptor (Homo sapiens, UniProt Q9GZN0). The experiment in a line: hGPR88-HEK cAMP accumulation assay. The following applies: GRP88 agonist activity (EC50), HEK-293 cells expressing human recombinant GPR88, forskolin 200 nM, High/Medium/Low bands. (cAMP levels reflect the balance of adenylyl cyclase and phosphodiesterase activity.)
Description: Biological Assay 1: hGPR88-HEK cAMP Accumulation Assay
Cryopreserved vials of HEK-293 cells expressing human recombinant GPR88 receptor are re-suspended in KRH assay buffer and 5 μl of cell solution is suspended in test wells at a seeding density of 2500±500 cells per well using the multidrop to provide a final reaction volume of 10 μl containing 0.5% DMSO. Assay plate is incubated for 30 min at room temperature and the reaction is terminated by addition of 5 μl of each of the cAMP detection reagents of the cAMP Gi kit (Cisbio Bioassays, 62AM9PEJ), diluted in cell lysis buffer, to each well using the multidrop in the following order: first the cAMP-d2 conjugate, then the anti-cAMP cryptate conjugate. […] Raw counts were converted to cAMP concentrations via a standard curve before EC50 and Emax determination. Data is expressed as % decrease in forskolin stimulated cAMP compared to cells treated with vehicle alone in the same buffer and on the same plate.
In the case of `O=C(Nc1ccc(-c2ccc(CN3CCOCC3)cc2)cc1)C1CC1c1ccccn1` (single isomer, unassigned) [Example 77, (1R*,2R*)-N-(4′-(morpholinomethyl)-[1,1′-biphenyl]-4-yl)-2-(pyridin-2-yl)cyclopropane-1-carboxamide], the pEC50 (commonly the EC50 on a negative log10 scale, so that one unit is a factor of ten) was 5.30 to 6.00.

For the compound `COCc1ccc(-c2ccc(NC(=O)C(C)(C)Oc3ccc(C(N)=O)cc3)cc2)cc1` [Example 102, 4-((1-((4′-(methoxymethyl)-[1,1′-biphenyl]-4-yl)amino)-2-methyl-1-oxopropan-2-yl)oxy)benzamide], the pEC50 is 5.30 to 6.00.

For the compound `COCc1ccc(C23CC(NC(=O)C4CC4c4ccccn4)(C2)C3)cc1` (racemic) [Example 112, (rac-trans)-N-(3-(4-(methoxymethyl)phenyl)bicyclo[1.1.1]pentan-1-yl)-2-(pyridin-2-yl)cyclopropane-1-carboxamide], the pEC50 is below 5.30.

With `COCc1ccc(-c2ccc(NC(=O)C(C)(C)Oc3ccc(F)cc3)cc2)c(F)c1` [Example 114, N-(2′-fluoro-4′-(methoxymethyl)-[1,1′-biphenyl]-4-yl)-2-(4-fluorophenoxy)-2-methylpropanamide], the pEC50 is 5.30 to 6.00.

For `CC(C)(Oc1ccc(F)cc1)C(=O)Nc1ccc(-c2ccc(C(F)(F)F)cc2)cc1` [Example 10, 2-(4-fluorophenoxy)-2-methyl-N-(4′-(trifluoromethyl)-[1,1′-biphenyl]-4-yl)propenamide], the pEC50 was below 5.30.

For `COCc1ccc(-c2ccc(N(C[C@@H](O)[C@@H](C)OC)C(=O)C3CC3c3ccccn3)cc2)cc1` (mixture of isomers) [Example 5, (rac-trans)-N-((2R,3R)-2-hydroxy-3-methoxybutyl)-N-(4′-methoxymethyl)-[1,1′-biphenyl]-4-yl)-2-(pyridin-2-yl)cyclopropane-1-carboxamide], the pEC50 is below 5.30.

Consider `COc1ccc(-c2ccc(NC(=O)C(C)(C)Oc3ccc(F)cc3)cc2)cc1` [Example 11, 2-(4-fluorophenoxy)-N-(4′-methoxy-[1,1′-biphenyl]-4-yl)-2-methylpropanamide], for which the pEC50 was below 5.30.

`CN(C)Cc1ccc(-c2ccc(NC(=O)C(C)(C)Oc3ccc(F)cc3)nc2)cc1` [Example 80, N-(5-(4-((dimethylamino)methyl)phenyl)pyridin-2-yl)-2-(4-fluorophenoxy)-2-methylpropanamide]: the pEC50 was 5.30 to 6.00.

As for `COCc1ccc(-c2ccc(NC(=O)C(C)(C)Cc3ccccc3)cc2)cc1` [Example 56, N-(4′-(methoxymethyl)-[1,1′-biphenyl]-4-yl)-2,2-dimethyl-3-phenylpropanamide], the pEC50 is 5.30 to 6.00.

As to `COCCN(C(=O)C(C)(C)Oc1ccc(F)cc1)c1ccc(-c2ccc(COC)cc2)cc1` [Example 15, 2-(4-fluorophenoxy)-N-(2-methoxyethyl)-N-(4′-(methoxymethyl)-[1,1′-biphenyl]-4-yl)-2-methylpropanamide], the pEC50 was 5.30 to 6.00.

In the case of `CCc1ccc(OC(C)(C)C(=O)Nc2ccc(-c3ccc(COC)cc3)cc2)cc1` [Example 57, 2-(4-ethylphenoxy)-N-(4′-(methoxymethyl)-[1,1′-biphenyl]-4-yl)-2-methylpropanamide], the pEC50 is above 6.00.

As to `COCc1ccc(-c2ccc(NC(=O)C3CC3c3ccccn3)nc2)cc1` (racemic) [Example 120, (rac-trans)-N-(5-(4-(methoxymethyl)phenyl)pyridin-2-yl)-2-(pyridin-2-yl)cyclopropane-1-carboxamide], the pEC50 was 5.30 to 6.00.

Take `COCc1ccc(-c2ccc(N(CCO)C(=O)C(C)(C)Oc3ccc(F)cc3)cc2)cc1` [Example 33, 2-(4-fluorophenoxy)-N-(2-hydroxyethyl)-N-(4′-(methoxymethyl)-[1,1′-biphenyl]-4-yl)-2-methylpropanamide]: the pEC50 is 5.30 to 6.00.

In the case of `CC(c1ccc(-c2ccc(NC(=O)C(C)(C)Oc3ccc(F)cc3)cc2)cc1)N1CCOCC1` (single isomer, unassigned) [Example 123, 2-(4-fluorophenoxy)-2-methyl-N-(4′-(1-morpholinoethyl)-[1,1′-biphenyl]-4-yl)propanamide], the pEC50 was above 6.00.

For the compound `COCc1ccc(-c2ccc(NC(=O)C(C)(C)Oc3ccc(F)cc3F)cc2)cc1` [Example 63, 2-(2,4-difluorophenoxy)-N-(4′-(methoxymethyl)-[1,1′-biphenyl]-4-yl)-2-methylpropanamide], the pEC50 was above 6.00.

Consider `CCOc1ccc(-c2ccc(NC(=O)C3(Oc4ccc(F)cc4)CC3)cc2)cn1` [Example 106, N-(4-(6-ethoxypyridin-3-yl)phenyl)-1-(4-fluorophenoxy)cyclopropane-1-carboxamide], for which the negative-log EC50 (pEC50) was 5.30 to 6.00.

As to `CN(C)Cc1ccc(-c2ccc(NC(=O)C3CC3c3ccccn3)cc2)cc1` (racemic) [Example 48, (rac-trans)-N-(4′-(dimethylamino)methyl)-[1,1′-biphenyl]-4-yl)-2-(pyridin-2-yl)cyclopropane-1-carboxamide], the pEC50 is below 5.30.

Regarding `COc1ccc(OC(C)(C)C(=O)Nc2ccc(-c3ccc(CN4CCOCC4)cc3)cc2)cc1` [Example 113], the pEC50 is 5.30 to 6.00.

For `CC(C)OCc1ccc(-c2ccc(NC(=O)C(C)(C)Oc3ccc(F)cc3)cc2)cc1` [Example 131, 2-(4-fluorophenoxy)-N-(4′-(isopropoxymethyl)-[1,1′-biphenyl]-4-yl)-2-methylpropanamide], the pEC50 is below 5.30.

For `CCCCN(C(=O)C(C)(C)Oc1ccc(F)cc1)c1ccc(-c2ccc(COC)cc2)cc1` [Example 28, N-butyl-2-(4-fluorophenoxy)-N-(4′-(methoxymethyl)-[1,1′-biphenyl]-4-yl)-2-methylpropanamide], the pEC50 is above 6.00.

Consider `COCc1ccc(-c2ccc(NC(=O)C(C)(C)Oc3cccc(C)c3)cc2)cc1` [Example 58, N-(4′-(methoxymethyl)-[1,1′-biphenyl]-4-yl)-2-methyl-2-(m-tolyloxy)propenamide], for which the pEC50 was above 6.00.

Take `COCc1ccc(-c2ccc(NC(=O)C(C)(C)Oc3ccccc3Cl)cc2)cc1` [Example 67, 2-(2-chlorophenoxy)-N-(4′-(methoxymethyl)-[1,1′-biphenyl]-4-yl)-2-methylpropanamide]: the pEC50 was above 6.00.

`CC(C)Oc1ccc(-c2ccc(NC(=O)C3CC3c3ccccn3)cc2)cc1` (racemic) [Example 90, (rac-trans)-N-(4′-isopropoxy-[1,1′-biphenyl]-4-yl)-2-(pyridin-2-yl)cyclopropane-1-carboxamide]: the pEC50 is 5.30 to 6.00.

As for `COCc1ccc(-c2ccc(NC(=O)C3CC3c3ccccc3)cc2)cc1` (racemic) [Example 61, (rac-trans)-N-(4′-(methoxymethyl)-[1,1′-biphenyl]-4-yl)-2-phenylcyclopropane-1-carboxamide], the pEC50 is below 5.30.

Regarding `CC(C)(Oc1ccc(F)cc1)C(=O)Nc1ccc(-c2ccc(COC3CC3)cc2)cc1` [Example 132, N-(4′-(cyclopropoxymethyl)-[1,1′-biphenyl]-4-yl)-2-(4-fluorophenoxy)-2-methylpropanamide], the pEC50 was 5.30 to 6.00.

On to `CCOCc1ccc(-c2ccc(NC(=O)C(C)(C)Oc3ccc(F)cc3)cc2)cc1` [Example 86, N-(4′-(ethoxymethyl)-[1,1′-biphenyl]-4-yl)-2-(4-fluorophenoxy)-2-methylpropanamide], for which the pEC50 was above 6.00.

As to `Cc1ncc(-c2ccc(NC(=O)C(C)(C)Oc3ccc(F)cc3)cc2)cn1` [Example 24, 2-(4-fluorophenoxy)-2-methyl-N-(4-(2-methylpyrimidin-5-yl)phenyl)propenamide], the negative-log EC50 (pEC50) is below 5.30.

Consider `CN(C)Cc1ccc(-c2ccc(NC(=O)C3CC3c3ccccn3)nc2)cc1` (racemic) [Example 82, (rac-trans)-N-(5-(4-((dimethylamino)methyl)phenyl)pyridin-2-yl)-2-(pyridin-2-yl)cyclopropane-1-carboxamide], for which the negative-log EC50 (pEC50) was below 5.30.

On to `COCc1ccc(-c2ccc(N(C)C(=O)C3CC3c3ccccn3)cc2)cc1` (racemic) [Example 73, (rac-trans)-N-(4′-(methoxymethyl)-[1,1′-biphenyl]-4-yl)-N-methyl-2-(pyridin-2-yl)cyclopropane-1-carboxamide], for which the pEC50 is below 5.30.

Consider `COCc1ccc(-c2ccc(NC(=O)C(C)Oc3ccc(F)cc3)cc2)cc1` (stereo not shown) [Example 6], for which the pEC50 is below 5.30.

As to `COCc1ccc(-c2ccc(NC(=O)C(C)(C)Oc3ccc(C(C)C)cc3)cc2)cc1` [Example 60, 2-(4-isopropylphenoxy)-N-(4′-(methoxymethyl)-[1,1′-biphenyl]-4-yl)-2-methylpropanamide], the pEC50 is above 6.00.

As for `CCOc1ccc(-c2ccc(NC(=O)C(C)(C)Oc3ccc(F)cc3)cc2)cc1` [Example 51, N-(4′-ethoxy-[1,1′-biphenyl]-4-yl)-2-(4-fluorophenoxy)-2-methylpropanamide], the pEC50 is below 5.30.

As for `COCc1ccc(-c2ccc3c(c2)CCN3C(=O)C2CC2c2ccccn2)cc1` (racemic) [Example 50, (5-(4-(methoxymethyl)phenyl)indolin-1-yl)((rac-trans)-2-(pyridin-2-yl)cyclopropyl)methanone], the pEC50 was 5.30 to 6.00.

Turning to `CCCc1ccc(-c2ccc(NC(=O)C(C)(C)Oc3ccc(F)cc3)cc2)cc1` [Example 84, 2-(4-fluorophenoxy)-2-methyl-N-(4′-propyl-[1,1′-biphenyl]-4-yl)propanamide], the negative-log EC50 (pEC50) was below 5.30.

For the compound `CN(C)c1ccc(-c2ccc(NC(=O)C3CC3c3ccccn3)cc2)cn1` (stereo not shown) [Example 125, N-(4-(6-(dimethylamino)pyridin-3-yl)phenyl)-2-(pyridin-2-yl)cyclopropane-1-carboxamide], the pEC50 was below 5.30.

For `COCc1ccc(-c2ccc(NC(=O)C(C)(C)Oc3ccc(Cl)cc3Cl)cc2)cc1` [Example 96, 2-(2,4-dichlorophenoxy)-N-(4′-(methoxymethyl)-[1,1′-biphenyl]-4-yl)-2-methylpropanamide], the pEC50 is below 5.30.

Still in this assay, the particulars now being: read-out: GRP88 agonist activity (EC50); HEK-293 cells expressing human recombinant GPR88, forskolin 200 nM, High/Medium/Low bands.
As for `COCc1ccc(-c2ccc(N(CC(C)(C)O)C(=O)C3CC3c3ccccn3)cc2)cc1` (stereo not shown) [Example 142, N-(2-hydroxy-2-methylpropyl)-N-(4′-(methoxymethyl)-[1,1′-biphenyl]-4-yl)-2-(pyridin-2-yl)cyclopropane-1-carboxamide], the pEC50 is below 5.30.

Values taken from patent US20240132450A1, “MODULATORS OF G PROTEIN-COUPLED RECEPTOR 88” (ACADIA Pharmaceuticals Inc., priority 2020, published 2024).
